How the values were obtained:
human CB2 receptors = human CB2 receptors (Homo sapiens (Human), UniProt P34972); test: human CB2 radioligand binding assay ([3H]CP 55,940 competition); conditions: HEK293 membranes, 0.5 nM [3H]CP 55,940
Protocol: HEK293 cells stably expressing human CB2 receptors were grown until a confluent monolayer was formed. Briefly, the cells were harvested and homogenized in TE buffer (50 mM Tris-HCl, 1 mM MgCl2, and 1 mM EDTA) using a polytron for 2×10 second bursts in the presence of protease inhibitors, followed by centrifugation at 45,000×g for 20 minutes. The final membrane pellet was re-homogenized in storage buffer (50 mM Tris-HCl, 1 mM MgCl2, and 1 mM EDTA and 10% sucrose) and frozen at −78° C. until used. Saturation binding reactions were initiated by the addition of membrane preparation (protein concentration of 5 μg/well for human CB2) into wells of a deep well plate containing [^3H]CP 55,940 (120 Ci/mmol, a nonselective CB agonist commercially available from Tocris) in assay buffer (50 mM Tris, 2.5 mM EDTA, 5 mM MgCl2, and 0.5 mg/mL fatty acid free BSA, pH 7.4). After 90 min incubation at 30° C., binding reaction was terminated by the addition of 300 μL/well of cold assay buffer followed by rapid vacuum filtration through a UniFilter-96 GF/C filter plates (pre-soaked in 1 mg/mL BSA for 2 hours). The bound activity was counted in a TopCount using Microscint-20. Saturation experiments were conducted with twelve concentrations of [^3H]CP 55,940 ranging from 0.01 to 8 nM. Competition experiments were conducted with 0.5 nM [^3H]CP 55,940 and five concentrations (0.01 nM to 10 μM) of displacing ligands. The addition of 10 μM unlabeled CP 55,940 (Tocris, Ellisville, Mo.) was used to assess nonspecific binding.

rat CB2 receptors [1] = biological target: T1, rat CB2 receptors (Rattus norvegicus (Rat), UniProt Q9QZN9); test: rat CB2 radioligand binding assay ([3H]CP 55,940 competition); conditions: HEK293 membranes, 0.5 nM [3H]CP 55,940
Protocol: HEK293 cells stably expressing rat CB2 receptors were grown until a confluent monolayer was formed. Briefly, the cells were harvested and homogenized in TE buffer (50 mM Tris-HCl, 1 mM MgCl2, and 1 mM EDTA) using a polytron for 2×10 second bursts in the presence of protease inhibitors, followed by centrifugation at 45,000×g for 20 minutes. The final membrane pellet was re-homogenized in storage buffer (50 mM Tris-HCl, 1 mM MgCl2, and 1 mM EDTA and 10% sucrose) and frozen at −78° C. until used. Saturation binding reactions were initiated by the addition of membrane preparation (protein concentration of 20 μg/well for rat CB2) into wells of a deep well plate containing [^3H]CP 55,940 (120 Ci/mmol, a nonselective CB agonist commercially available from Tocris) in assay buffer (50 mM Tris, 2.5 mM EDTA, 5 mM MgCl2, and 0.5 mg/mL fatty acid free BSA, pH 7.4). After 45 min incubation at 30° C., binding reaction was terminated by the addition of 300 μl/well of cold assay buffer followed by rapid vacuum filtration through a UniFilter-96 GF/C filter plates (pre-soaked in 1 mg/mL BSA for 2 hours). The bound activity was counted in a TopCount using Microscint-20. Saturation experiments were conducted with twelve concentrations of [^3H]CP 55,940 ranging from 0.01 to 8 nM. Competition experiments were conducted with 0.5 nM [^3H]CP 55,940 and five concentrations of displacing ligands selected from the range of 0.01 nM to 10 μM. The addition of 10 μM unlabeled CP 55,940 (Tocris, Ellisville, Mo.) was used to assess nonspecific binding.

rat CB2 receptors [2] = biological target: T1, rat CB2 receptors; test: rat CB2 cyclase functional assay (HitHunter cAMP); assay type: cell-based; conditions: HEK cells, forskolin 18 μM
Protocol: The cyclase functional assays were performed using the HitHunter™ cAMP assay kit from DiscoveRx (Fremont, Calif.) according to vendor's protocol. Briefly, HEK cells expressing CB2 or CB1 receptors (rat or human) were detached using cell dissociation buffer (Invitrogen, Carlsbad, Calif.), dispersed and placed in suspension at 10,000 cells per well in 96 well plates prior to the assay. Cell suspensions were incubated at 37° C. for 20 min with variable concentrations of test ligands and or 10 μM CP 55,940-positive control in the presence of a fixed concentration of forskolin (18 μM for rat CB2 and 37 μM for rat CB1) in Dulbescco's phosphate-buffered saline (Invitrogen, Carlsbad, Calif.) supplemented with bovine serum albumin (0.01% final concentration). The reactions were terminated by the addition of lysis buffer and the luminescence was detected following the procedure according to the manufacturer's instructions. EC50 values were calculated using sigmoidal dose-response curve fitting from Prism (GraphPad).

T1 sequence (Q9QZN9 whole entry): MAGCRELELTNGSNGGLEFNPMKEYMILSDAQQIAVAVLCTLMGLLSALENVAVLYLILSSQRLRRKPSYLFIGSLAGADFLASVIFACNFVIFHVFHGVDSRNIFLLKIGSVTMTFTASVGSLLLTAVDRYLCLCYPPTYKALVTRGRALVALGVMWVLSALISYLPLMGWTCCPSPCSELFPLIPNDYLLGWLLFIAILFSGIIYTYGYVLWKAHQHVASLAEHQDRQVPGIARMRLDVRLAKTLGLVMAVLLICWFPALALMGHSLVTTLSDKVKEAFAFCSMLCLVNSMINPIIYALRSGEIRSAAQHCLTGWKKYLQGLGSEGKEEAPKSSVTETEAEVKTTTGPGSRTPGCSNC
human CB2 receptors, sequence (P34972 whole entry): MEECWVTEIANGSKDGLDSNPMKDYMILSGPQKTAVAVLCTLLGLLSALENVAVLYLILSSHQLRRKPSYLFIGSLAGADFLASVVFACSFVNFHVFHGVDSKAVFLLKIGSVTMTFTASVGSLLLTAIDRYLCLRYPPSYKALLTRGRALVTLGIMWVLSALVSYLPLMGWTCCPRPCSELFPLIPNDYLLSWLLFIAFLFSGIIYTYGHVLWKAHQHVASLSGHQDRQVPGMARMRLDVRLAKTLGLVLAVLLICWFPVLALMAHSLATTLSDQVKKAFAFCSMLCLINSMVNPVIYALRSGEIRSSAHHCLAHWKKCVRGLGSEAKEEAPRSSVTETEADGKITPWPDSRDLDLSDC

With `CN1CCC[C@H]1COc1ccc(C(F)(F)F)cc1C(=O)/N=c1\sc(C(C)(C)C)cn1CC1(O)CCC1` [Example 11, N-[(2Z)-5-tert-butyl-3-[(1-hydroxycyclobutyl)methyl]-1,3-thiazol-2(3H)-ylidene]-2-{[(2S)-1-methylpyrrolidin-2-yl]methoxy}-5-(trifluoromethyl)benzamide] the Ki (human CB2 receptors) was 95 nM, the Ki (rat CB2 receptors [1]) was 32 nM and the EC50 (rat CB2 receptors [2]) was 0.41 nM.

Molecule `CC(C)Cn1cc(C(C)(C)C)s/c1=N\C(=O)c1cc(Cl)ccc1OCC1CCO1` (stereo not drawn) [Example 4, N-[(2Z)-5-tert-butyl-3-isobutyl-1,3-thiazol-2(3H)-ylidene]-5-chloro-2-(oxetan-2-ylmethoxy)benzamide] has a Ki (human CB2 receptors) of 9 nM, a Ki (rat CB2 receptors [1]) of 5.2 nM and an EC50 (rat CB2 receptors [2]) of 0.23 nM.

For `CCCCn1cc(C(C)(C)C)s/c1=N\C(=O)c1cc(C(F)(F)F)ccc1OC[C@@H]1CCCN1C` [Example 9, N-[(2Z)-3-butyl-5-tert-butyl-1,3-thiazol-2(3H)-ylidene]-2-{[(2S)-1-methylpyrrolidin-2-yl]methoxy}-5-(trifluoromethyl)benzamide], the Ki (human CB2 receptors) was 9.2 nM, the Ki (rat CB2 receptors [1]) was 7.7 nM and the EC50 (rat CB2 receptors [2]) was 0.97 nM.

`CC(C)Cn1cc(C(C)(C)C)s/c1=N\C(=O)c1cc(C(F)(F)F)ccc1OCc1ccco1` [Example 3, N-[(2Z)-5-tert-butyl-3-isobutyl-1,3-thiazol-2(3H)-ylidene]-2-(2-furylmethoxy)-5-(trifluoromethyl)benzamide] gave a Ki (human CB2 receptors) of 7.4 nM, a Ki (rat CB2 receptors [1]) of 8.7 nM and an EC50 (rat CB2 receptors [2]) of 1.9 nM.

`CC(C)Cn1cc(C(C)(C)C)s/c1=N\C(=O)c1cc(C(F)(F)F)ccc1OC[C@@H]1CCCN1C` [Example 5, N-[(2Z)-5-tert-butyl-3-isobutyl-1,3-thiazol-2(3H)-ylidene]-2-{[(2S)-1-methylpyrrolidin-2-yl]methoxy}-5-(trifluoromethyl)benzamide] showed a Ki (human CB2 receptors) of 39 nM, a Ki (rat CB2 receptors [1]) of 18 nM and an EC50 (rat CB2 receptors [2]) of 1.2 nM.

`CCCCn1/c(=N/C(=O)c2cc(C(F)(F)F)ccc2OCCNC(C)=O)sc2ccncc21` [Example 25, 2-[2-(acetylamino)ethoxy]-N-[(2Z)-3-butyl[1,3]thiazolo[4,5-c]pyridin-2(3H)-ylidene]-5-(trifluoromethyl)benzamide] showed a Ki (human CB2 receptors) of 1.5 nM, a Ki (rat CB2 receptors [1]) of 3.6 nM and an EC50 (rat CB2 receptors [2]) of 0.11 nM.

`CC(=O)OCCOc1ccc(C(F)(F)F)cc1C(=O)/N=c1\sc(C(C)(C)C)cn1CC(C)C` [Example 18, 2-[2-({[(2Z)-5-tert-butyl-3-isobutyl-1,3-thiazol-2(3H)-ylidene]amino}carbonyl)-4-(trifluoromethyl)phenoxy]ethyl acetate] gave a Ki (human CB2 receptors) of 16 nM, a Ki (rat CB2 receptors [1]) of 1.4 nM and an EC50 (rat CB2 receptors [2]) of 0.19 nM.

`CCCCn1/c(=N/C(=O)c2cc(C(F)(F)F)ccc2OC[C@H](C)O)sc2ccncc21` [Example 29, N-[(2Z)-3-butyl[1,3]thiazolo[4,5-c]pyridin-2(3H)-ylidene]-2-{[(2S)-2-hydroxypropyl]oxy}-5-(trifluoromethyl)benzamide] gave a Ki (human CB2 receptors) of 2 nM, a Ki (rat CB2 receptors [1]) of 2.5 nM and an EC50 (rat CB2 receptors [2]) of 1.4 nM.

With `CC(C)Cn1cc(C(C)(C)C)s/c1=N\C(=O)c1cc(C(F)(F)F)ccc1OCCO` [Example 19, N-[(2Z)-5-tert-butyl-3-isobutyl-1,3-thiazol-2(3H)-ylidene]-2-(2-hydroxyethoxy)-5-(trifluoromethyl)benzamide] the Ki (human CB2 receptors) was 0.73 nM, the Ki (rat CB2 receptors [1]) was 0.15 nM and the EC50 (rat CB2 receptors [2]) was 0.13 nM.

In the case of `CC(C)Cn1cc(C(C)(C)C)s/c1=N\C(=O)c1cc(C(F)(F)F)ccc1OC[C@@H]1CCN1` [Example 14, 2-[(2S)-azetidin-2-ylmethoxy]-N-[(2Z)-5-tert-butyl-3-isobutyl-1,3-thiazol-2(3H)-ylidene]-5-(trifluoromethyl)benzamide], the Ki (human CB2 receptors) is reported as 44 nM, the Ki (rat CB2 receptors [1]) is reported as 13 nM and the EC50 (rat CB2 receptors [2]) is reported as 0.36 nM.

`CC(C)Cn1cc(C(C)(C)C)s/c1=N\C(=O)c1cc(C(F)(F)F)ccc1OC[C@@H]1CCN1C` [Example 12, N-[(2Z)-5-tert-butyl-3-isobutyl-1,3-thiazol-2(3H)-ylidene]-2-{[(2S)-1-methylazetidin-2-yl]methoxy}-5-(trifluoromethyl)benzamide] was tested, and the Ki (human CB2 receptors) was 37 nM, the Ki (rat CB2 receptors [1]) was 26 nM and the EC50 (rat CB2 receptors [2]) was 3.5 nM.

Molecule `CC(C)Cn1cc(C(C)(C)C)s/c1=N\C(=O)c1cc(C(F)(F)F)ccc1OCC1CCOC1` (stereo not drawn) [Example 8, N-[(2Z)-5-tert-butyl-3-isobutyl-1,3-thiazol-2(3H)-ylidene]-2-(tetrahydrofuran-3-ylmethoxy)-5-(trifluoromethyl)benzamide] has a Ki (human CB2 receptors) of 5 nM, a Ki (rat CB2 receptors [1]) of 2.4 nM and an EC50 (rat CB2 receptors [2]) of 0.058 nM.

`CC(C)Cn1cc(C(C)(C)C)s/c1=N\C(=O)c1cc(C(F)(F)F)ccc1OCCN1CCCC1` [Example 7, N-[(2Z)-5-tert-butyl-3-isobutyl-1,3-thiazol-2(3H)-ylidene]-2-(2-pyrrolidin-1-ylethoxy)-5-(trifluoromethyl)benzamide] gave a Ki (human CB2 receptors) of 32 nM, a Ki (rat CB2 receptors [1]) of 12 nM and an EC50 (rat CB2 receptors [2]) of 1.3 nM.

`CCCCn1/c(=N/C(=O)c2cc(C(F)(F)F)ccc2OCC(C)(C)O)sc2ccncc21` [Example 21, N-[(2Z)-3-butyl[1,3]thiazolo[4,5-c]pyridin-2(3H)-ylidene]-2-(2-hydroxy-2-methylpropoxy)-5-(trifluoromethyl)benzamide] showed a Ki (human CB2 receptors) of 5.4 nM, a Ki (rat CB2 receptors [1]) of 9.3 nM and an EC50 (rat CB2 receptors [2]) of 0.58 nM.

In the case of `CC(C)Cn1cc(C(C)(C)C)s/c1=N\C(=O)c1cc(Br)ccc1OC[C@@H]1CCCN1C` [Example 1, 5-bromo-N-[(2Z)-5-tert-butyl-3-isobutyl-1,3-thiazol-2(3H)-ylidene]-2-{[(2S)-1-methylpyrrolidin-2-yl]methoxy}benzamide], the Ki (human CB2 receptors) is reported as 27 nM, the Ki (rat CB2 receptors [1]) is reported as 19 nM and the EC50 (rat CB2 receptors [2]) is reported as 0.75 nM.

Work on `CCCCn1cc(C(C)(C)C)s/c1=N\C(=O)c1cc(Cl)ccc1OCC(N)=O` [Example 2, 2-(2-amino-2-oxoethoxy)-N-[(2Z)-3-butyl-5-tert-butyl-1,3-thiazol-2(3H)-ylidene]-5-chlorobenzamide] yielded a Ki (human CB2 receptors) of 3.1 nM, a Ki (rat CB2 receptors [1]) of 1.1 nM and an EC50 (rat CB2 receptors [2]) of 0.07 nM.
